Experimental data from patent publication US20250145596A1, “HETEROCYCLIC GLP-1 AGONISTS” (Gasherbrum Bio, Inc., priority 2022, published 2025).

molecular target: T1, GLP-1 Receptor (Homo sapiens, UniProt P43220); assay: GLP-1R agonist cAMP stimulation assay; format: cell-based; conditions: HEK293/CRE-Luc cell line stably expressing the GLP-1 Receptor; 30 min at 37° C.; cAMP dynamic 2 Kit
T1 construct: host or cells: HEK293/CRE-Luc
How it was run: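 HEK293 cells stably expressing GLP-1R with CRE-luciferase, 1000 cells/well in DPBS with 0.5 mM IBMX and 0.1% BSA, exposed to compound (½-log dilutions) for 30 min at 37 °C. cAMP measured by HTRF (665/615 nm) after 1 h at room temperature; % activity scaled between vehicle and maximal control.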

T1 sequence (P43220 24-463): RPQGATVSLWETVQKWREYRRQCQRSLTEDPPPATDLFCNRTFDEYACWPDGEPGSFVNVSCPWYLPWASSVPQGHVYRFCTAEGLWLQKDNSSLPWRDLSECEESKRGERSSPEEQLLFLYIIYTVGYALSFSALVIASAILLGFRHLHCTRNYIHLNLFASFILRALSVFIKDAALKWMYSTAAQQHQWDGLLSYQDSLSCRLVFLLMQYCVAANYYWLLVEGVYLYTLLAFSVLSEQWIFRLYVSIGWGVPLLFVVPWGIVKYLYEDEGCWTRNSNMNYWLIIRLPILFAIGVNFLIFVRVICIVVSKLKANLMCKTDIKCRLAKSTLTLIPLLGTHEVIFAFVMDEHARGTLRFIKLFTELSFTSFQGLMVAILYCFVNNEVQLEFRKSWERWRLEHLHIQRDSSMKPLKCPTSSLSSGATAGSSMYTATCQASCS

SMILES	EC50 [nM]
CCS(=O)(=O)Cc1cc(-c2nnc(C(F)(F)F)[nH]2)cnc1CN1CCC(c2cccc3c2O[C@@](C)(c2ccc(Cl)cc2F)O3)CC1 [Example 59, 2-({4-[(2S)-2-(4-chloro-2-fluorophenyl)-2-methyl-2H-1,3-benzodioxol-4-yl]piperidin-1-yl}methyl)-3-[(ethanesulfonyl)methyl]-5-[5-(trifluoromethyl)-4H-1,2,4-triazol-3-yl]pyridine]	< 1
N#CC1(Cc2cc(-c3nnc(C(F)(F)F)[nH]3)cnc2CN2CCC(c3cccc(OCc4ccc(Cl)cc4F)n3)CC2)CC1 [Example 32, 1-({2-[(4-{6-[(4-chloro-2-fluorophenyl)methoxy]pyridin-2-yl}piperidin-1-yl)methyl]-5-[5-(trifluoromethyl)-4H-1,2,4-triazol-3-yl]pyridin-3-yl}methyl)cyclopropane-1-carbonitrile]	< 1
C[C@H]1CN(c2ccnc(OCc3ccc(Cl)cc3F)n2)CCN1Cc1ncc(-c2nnc(C(F)(F)F)[nH]2)cc1CC1(C#N)CC1 [Example 91]	1 to 100
C[C@]1(c2ccc(Cl)cc2F)Oc2cccc(C3CCN(Cc4ncc(-c5nnn[nH]5)cc4CC4(C#N)CC4)CC3)c2O1 [Example 71]	< 1
C[C@]1(c2ccc(Cl)cn2)Oc2cccc(C3CCN(Cc4ncc(-c5noc(=O)[nH]5)cc4CC4(C#N)CC4)CC3)c2O1 [Example 77]	< 1
CC1(c2ccc(Cl)cc2Cl)Oc2cccc(C3CCN(Cc4ncc(-c5nnc(C(F)(F)F)[nH]5)cc4CC4(C#N)CC4)CC3)c2O1 (stereo not shown) [Example 1, 1-{[2-({4-[2-(2,4-dichlorophenyl)-2-methyl-2H-1,3-benzodioxol-4-yl]piperidin-1-yl}methyl)-5-[5-(trifluoromethyl)-4H-1,2,4-triazol-3-yl]pyridin-3-yl]methyl}cyclopropane-1-carbonitrile]	< 1
Cc1nc(-c2nnc(C(F)(F)F)[nH]2)cnc1CN1CCC(c2cccc3c2O[C@@](C)(c2ccc(Cl)cc2F)O3)CC1 [Example 52, 2-({4-[(2S)-2-(4-chloro-2-fluorophenyl)-2-methyl-1,3-benzodioxol-4-yl]piperidin-1-yl}methyl)-3-methyl-5-[5-(trifluoromethyl)-4H-1,2,4-triazol-3-yl]pyrazine]	1 to 100
CC1(c2ccc(F)cc2Cl)Oc2cccc(C3CCN(Cc4ncc(-c5nnc(C(F)(F)F)[nH]5)cc4CC4(C#N)CC4)CC3)c2O1 (stereo not shown) [Example 4, 1-{[2-({4-[2-(2-chloro-4-fluorophenyl)-2-methyl-2H-1,3-benzodioxol-4-yl]piperidin-1-yl}methyl)-5-[5-(trifluoromethyl)-4H-1,2,4-triazol-3-yl]pyridin-3-yl]methyl}cyclopropane-1-carbonitrile]	< 1
CC1(c2ccc(C(F)(F)F)cc2Cl)Oc2cccc(C3CCN(Cc4ncc(-c5nnc(C(F)(F)F)[nH]5)cc4CC4(C#N)CC4)CC3)c2O1 (stereo not shown) [Example 9, 1-((2-((4-(2-(2-Chloro-4-(trifluoromethyl)phenyl)-2-methylbenzo[d][1,3]dioxol-4-yl)piperidin-1-yl)methyl)-5-(5-(trifluoromethyl)-4H-1,2,4-triazol-3-yl)pyridin-3-yl)methyl)cyclopropane-1-carbonitrile]	< 1
N#CC1(Cc2cc(-c3nnc(C(F)(F)F)[nH]3)cnc2CN2CC=C(c3cccc(OCc4ccc(Cl)cc4F)n3)CC2)CC1 [Example 47, 1-{[2-({6-[(4-chloro-2-fluorophenyl)methoxy]-1′,2′,3′,6′-tetrahydro-[2,4′-bipyridin]-1′-yl}methyl)-5-[5-(trifluoromethyl)-4H-1,2,4-triazol-3-yl]pyridin-3-yl]methyl}cyclopropane-1-carbonitrile]	< 1
